Source: ChEMBL document CHEMBL3797052 (Eur J Med Chem, 2016)

Legend:
Type in all cases: functional
[1] = Antiproliferative activity against human SNB19 cells assessed as cell growth at 10^-5 M after 48 hrs by sulforhodamine B assay; conditions: SNB-19, 48 h, read-out: Activity
[2] = Antiproliferative activity against human HOP92 cells assessed as cell growth at 10^-5 M after 48 hrs by sulforhodamine B assay; conditions: HOP-92, 48 h, read-out: Activity
[3] = tested on: NCI-H522; test: Antiproliferative activity against human NCI-H522 cells assessed as cell growth at 10^-5 M after 48 hrs by sulforhodamine B assay; conditions: NCI-H522, 48 h, read-out: Activity
[4] = Antiproliferative activity against human HL-60(TB) cells assessed as cell growth at 10^-5 M after 48 hrs by sulforhodamine B assay; conditions: HL-60, 48 h, read-out: Activity
[5] = Antiproliferative activity against human HCC2998 cells assessed as cell growth at 10^-5 M after 48 hrs by sulforhodamine B assay; conditions: HCC 2998, 48 h, read-out: Activity
[6] = Cytotoxicity against human SKBR3 cells assessed as growth inhibition at 10 uM after 2 days by MTT assay; conditions: SK-BR-3, 48 h, read-out: GI
[7] = Antiproliferative activity against human SF295 cells assessed as cell growth at 10^-5 M after 48 hrs by sulforhodamine B assay; conditions: SF-295, 48 h, read-out: Activity
[8] = Antiproliferative activity against human IGROV1 cells assessed as cell growth at 10^-5 M after 48 hrs by sulforhodamine B assay; conditions: IGROV-1, 48 h, read-out: Activity
[9] = Antiproliferative activity against human OVCAR5 cells assessed as cell growth at 10^-5 M after 48 hrs by sulforhodamine B assay; conditions: OVCAR-5, 48 h, read-out: Activity
[10] = Antiproliferative activity against human NCI-ADR-RES cells assessed as cell growth at 10^-5 M after 48 hrs by sulforhodamine B assay; conditions: read-out: Activity
[11] = Antiproliferative activity against human OVCAR8 cells assessed as cell growth at 10^-5 M after 48 hrs by sulforhodamine B assay; conditions: OVCAR-8, 48 h, read-out: Activity
[12] = Antiproliferative activity against human Hs 578T cells assessed as cell growth at 10^-5 M after 48 hrs by sulforhodamine B assay; conditions: read-out: Activity
[13] = tested on: SK-MEL-5; test: Antiproliferative activity against human SK-MEL-5 cells assessed as cell growth at 10^-5 M after 48 hrs by sulforhodamine B assay; conditions: SK-MEL-5, 48 h, read-out: Activity
[14] = tested on: NCI-H460; test: Antiproliferative activity against human NCI-H460 cells assessed as cell growth at 10^-5 M after 48 hrs by sulforhodamine B assay; conditions: NCI-H460, 48 h, read-out: Activity
[15] = Cytotoxicity against human SKBR3 cells assessed as growth inhibition at 100 uM after 2 days by MTT assay; conditions: SK-BR-3, 48 h, read-out: GI
[16] = Cytotoxicity against human HCT116 cells assessed as growth inhibition at 10 uM after 2 days by MTT assay; conditions: HCT-116, 48 h, read-out: GI
[17] = Cytotoxicity against human HCT116 cells assessed as growth inhibition at 100 uM after 2 days by MTT assay; conditions: HCT-116, 48 h, read-out: GI
[18] = tested on: SN12C; test: Antiproliferative activity against human SN12C cells assessed as cell growth at 10^-5 M after 48 hrs by sulforhodamine B assay; conditions: read-out: Activity
[19] = tested on: NCI-H322M; test: Antiproliferative activity against human NCI-H322M cells assessed as cell growth at 10^-5 M after 48 hrs by sulforhodamine B assay; conditions: read-out: Activity
[20] = tested on: T47D; test: Antiproliferative activity against human T47D cells assessed as cell growth at 10^-5 M after 48 hrs by sulforhodamine B assay; conditions: read-out: Activity
[21] = tested on: SK-MEL-28; test: Antiproliferative activity against human SK-MEL-28 cells assessed as cell growth at 10^-5 M after 48 hrs by sulforhodamine B assay; conditions: SK-MEL-28, 48 h, read-out: Activity
[22] = tested on: U-251; test: Antiproliferative activity against human U251 cells assessed as cell growth at 10^-5 M after 48 hrs by sulforhodamine B assay; conditions: U-251, 48 h, read-out: Activity
[23] = Antiproliferative activity against human HCT15 cells assessed as cell growth at 10^-5 M after 48 hrs by sulforhodamine B assay; conditions: HCT-15, 48 h, read-out: Activity
[24] = Antiproliferative activity against human SKOV3 cells assessed as cell growth at 10^-5 M after 48 hrs by sulforhodamine B assay; conditions: SK-OV-3, 48 h, read-out: Activity
[25] = Antiproliferative activity against human COLO205 cells assessed as cell growth at 10^-5 M after 48 hrs by sulforhodamine B assay; conditions: COLO 205, 48 h, read-out: Activity
[26] = tested on: CCRF-CEM; test: Antiproliferative activity against human CCRF-CEM cells assessed as cell growth at 10^-5 M after 48 hrs by sulforhodamine B assay; conditions: read-out: Activity
[27] = Antiproliferative activity against human TK10 cells assessed as cell growth at 10^-5 M after 48 hrs by sulforhodamine B assay; conditions: TK-10, 48 h, read-out: Activity
[28] = Antiproliferative activity against human SNB75 cells assessed as cell growth at 10^-5 M after 48 hrs by sulforhodamine B assay; conditions: SNB-75, 48 h, read-out: Activity
[29] = tested on: K562; test: Antiproliferative activity against human K562 cells assessed as cell growth at 10^-5 M after 48 hrs by sulforhodamine B assay; conditions: K562, 48 h, read-out: Activity
[30] = Antiproliferative activity against human OVCAR3 cells assessed as cell growth at 10^-5 M after 48 hrs by sulforhodamine B assay; conditions: OVCAR-3, 48 h, read-out: Activity
[31] = tested on: SR; test: Antiproliferative activity against human SR cells assessed as cell growth at 10^-5 M after 48 hrs by sulforhodamine B assay; conditions: read-out: Activity
[32] = Antiproliferative activity against human DU145 cells assessed as cell growth at 10^-5 M after 48 hrs by sulforhodamine B assay; conditions: DU-145, 48 h, read-out: Activity
[33] = Antiproliferative activity against human Caki1 cells assessed as cell growth at 10^-5 M after 48 hrs by sulforhodamine B assay; conditions: CAKI-1, 48 h, read-out: Activity
[34] = tested on: SK-MEL-2; test: Antiproliferative activity against human SK-MEL-2 cells assessed as cell growth at 10^-5 M after 48 hrs by sulforhodamine B assay; conditions: SK-MEL-2, 48 h, read-out: Activity
[35] = Antiproliferative activity against human PC3 cells assessed as cell growth at 10^-5 M after 48 hrs by sulforhodamine B assay; conditions: PC-3, 48 h, read-out: Activity
[36] = tested on: MCF7; test: Antiproliferative activity against human MCF7 cells assessed as cell growth at 10^-5 M after 48 hrs by sulforhodamine B assay; conditions: MCF7, 48 h, read-out: Activity
[37] = Antiproliferative activity against human SW620 cells assessed as cell growth at 10^-5 M after 48 hrs by sulforhodamine B assay; conditions: SW-620, 48 h, read-out: Activity

Row | Structure (SMILES) | growth at 10 µM [1] | growth at 10 µM [2] | growth at 10 µM [3] | growth at 10 µM [4] | growth at 10 µM [5] | inhibition of growth at 10 µM [6] | growth at 10 µM [7] | growth at 10 µM [8] | growth at 10 µM [10] | growth at 10 µM [11] | growth at 10 µM [12] | growth at 10 µM [13] | growth at 10 µM [14] | inhibition of growth at 100 µM [15] | inhibition of growth at 10 µM [16] | inhibition of growth at 100 µM [17] | growth at 10 µM [18] | growth at 10 µM [19] | growth at 10 µM [20] | growth at 10 µM [22] | also measured
1 | CNC(=O)c1cc(Oc2ccc3nc(NC(=O)Nc4cc(C(F)(F)F)cc(C(F)(F)F)c4)sc3c2)ccn1 | -34% | -69% | -58% | -46% | -64% | 88.1% | -89% | -62% | -62% | -93% | -34% | -76% | -75% | 96.3% | 87.5% | 98.4% | -58% | -57% | -56% | -98% | growth at 10 µM [9]: -64%; growth at 10 µM [21]: -75%; growth at 10 µM [23]: -70%; growth at 10 µM [24]: -71%; growth at 10 µM [25]: -79%; growth at 10 µM [26]: -16%; growth at 10 µM [27]: -79%; growth at 10 µM [28]: -66%; growth at 10 µM [29]: -20%; growth at 10 µM [30]: -93%; growth at 10 µM [31]: -47%; growth at 10 µM [32]: -69%; growth at 10 µM [33]: -77%; growth at 10 µM [34]: -53%; growth at 10 µM [35]: -65%; growth at 10 µM [36]: -59%; growth at 10 µM [37]: -74%
2 | CNC(=O)c1cc(Oc2ccc3nc(NC(=O)Nc4ccc(Cl)cc4)sc3c2)ccn1 | 59.3% | 63.3% | 78% | 98.9% | 86.5% | 50.8% | 66.3% | 83.6% | 83.6% | 57.2% | 30.1% | 73.3% | 64.3% | 77.4% | 57.4% | 85.2% | 62.4% | 66.8% | 44% | 37.3% | growth at 10 µM [9]: 92.3%; growth at 10 µM [23]: 84.8%; growth at 10 µM [24]: 82%; growth at 10 µM [25]: 79.4%; growth at 10 µM [26]: 83.2%; growth at 10 µM [27]: 62.3%; growth at 10 µM [28]: 50.6%; growth at 10 µM [29]: 65.6%; growth at 10 µM [30]: 48.8%; growth at 10 µM [31]: 42.7%; growth at 10 µM [32]: 53.2%; growth at 10 µM [33]: 94.7%; growth at 10 µM [34]: 81.1%; growth at 10 µM [35]: 66%; growth at 10 µM [36]: 69.5%; growth at 10 µM [37]: 101%
3 | CNC(=O)c1cc(Oc2ccc3nc(NC(=O)Nc4ccc(Cl)c(Cl)c4)sc3c2)ccn1 | -67% | -44% | 20% | 95% | 29% | 69% | -81% | -20% | -43% | -40% | -23% | -32% | -40% | 92.6% | 69.8% | 91.9% | 14% | -4% | -26% | -84% | growth at 10 µM [21]: -72%; growth at 10 µM [23]: -19%; growth at 10 µM [24]: -74%; growth at 10 µM [25]: 16%; growth at 10 µM [26]: 76%; growth at 10 µM [27]: -4%; growth at 10 µM [28]: -69%; growth at 10 µM [29]: 55%; growth at 10 µM [30]: -37%; growth at 10 µM [31]: 39%; growth at 10 µM [32]: -25%; growth at 10 µM [33]: -25%; growth at 10 µM [34]: -30%; growth at 10 µM [35]: -53%; growth at 10 µM [36]: 4%; growth at 10 µM [37]: 42%
